Data on six compounds can be found in paper PMC6881072, “The repositioning of epigenetic probes/inhibitors identifies new anti-schistosomal lead compounds and chemotherapeutic targets” (PLoS Neglected Tropical Diseases, 2019).

The structures appear in SMILES notation. “Also recorded” adds a separate entry of the source. Like-named read-outs stand apart in the source and are kept apart here.

For one data set, the system named is miracidia. Also noted: method as in Roquis et al., 2018. To be noted: ref Roquis et al., 2018; cited from earlier work.
The next data set concerns S. mansoni schistosomula. The experiment in a line: In vitro schistosomula screening (Roboworm platform), phenotype and motility. The conditions noted are these: for hit / activity against schistosomula, single-point screen: hit cut-offs phenotype -0.15, motility -0.35; for SELECTIVITY INDEX Schistosomula Phenotype: CC50 HepG2 / schistosomula phenotype EC50; for EC50: Schistosoma mansoni; for SELECTIVITY INDEX Schistosomula Motility: CC50 HepG2 / schistosomula motility EC50. The class given is cell-based, Schistosoma mansoni. On the procedure:
Briefly, 384-well tissue culture plates (Perkin Elmer, cat 6007460), containing 20 μl of Basch medium, were wet-stamped using a Biomek NX^P liquid handling platform (Beckman Coulter, UK) with negative (0.625% dimethyl sulfoxide, DMSO) and positive controls (AUR and PZQ at 10 μM final concentration in 0.625% DMSO) as well as 37 SGC compounds (at 10 μM final concentration in 0.625% DMSO). […] To each pre-loaded well (single concentration or titration screens), a total of 100–120 mechanically transformed schistosomula (in 60 μl) were deposited via a WellMate (Thermo Scientific, UK). Schistosomula/compound co-cultures (80 μl in total) were then incubated at 37°C for 72 h in a humidified atmosphere containing 5% CO2. At 72 h, tissue culture plates (containing schistosomula/compound co-cultures) were imaged under the same conditions (37°C in a humidified atmosphere containing 5% CO2) using an ImageXpressXL high content imager (Molecular Devices, UK) with subsequent images processed for phenotype and motility as previously reported and successfully implemented by us at Aberystwyth University. Single point schistosomula screens (10 μM) were repeated two or three times whereas dose response titrations were performed once. Zˊ values obtained from all schistosomula screens ranged from 0.27–0.48 (mean = 0.40) for phenotype and 0.41–0.56 (mean = 0.48) for motility.

Data set [1] deals with adult male and female schistosome pairs. The experiment in a line: In vitro adult schistosome screening (WHO/TDR motility, egg counts). The data set is classed as cell-based, Schistosoma mansoni. The conditions noted are these: for SELECTIVITY INDEX Adult Females: CC50 HepG2 / adult female EC50; for SELECTIVITY INDEX Adult Males: CC50 HepG2 / adult male EC50; for EC50: Schistosoma mansoni. On the procedure: In vitro screening was replicated three times on different dates to account for any biological variation. Briefly three adult worm pairs/well (48-well tissue culture plate format) were placed into DMEM (Gibco, Paisley, UK) supplemented with 10% (v/v) FCS (Gibco, Paisley, UK), 1% (v/v) L-glutamine (Gibco, Paisley, UK) and an antibiotic mixture (150 Units/ml penicillin and 150 μg/ml streptomycin; Gibco, UK). DMSO (0.5% negative control), AUR (10 μM concentration in 0.5% DMSO; positive control) and two-fold titrations of SGC compounds (50 μM– 6.25 μM or 50 μM– 0.05 μM; in 0.5% DMSO max) were added, and together, these adult worm/compound co-cultures were incubated at 37°C for 72 h in a humidified atmosphere containing 5% CO2. Following compound incubation, WHO/TDR readouts of adult worm motility, abundance of H3K36me2 (LLY-507 and BAY-598 treated worms only) in histone extracts and egg counts/well were recorded at 72 h.

Data set [2] can be described thus: HepG2 cell cytotoxicity, MTT assay. The data set is classed as cell-based, Human. To be noted: human, HepG2 cells, read-out: CC50 (HepG2) (95% Confidence Intervals). On the procedure:
(§1) Human Hepatocyte Carcinoma (HepG2) cells (Sigma Aldrich, UK) were utilized to assess SGC epigenetic probe cell cytotoxicity in the application of the MTT (3-(4,5-dimethylthiazol-2-yl)-2,5-diphenyltetrazolium bromide) assay. Briefly, cells were passaged at 70–80% confluence and seeded (20,000 cells/ 50 μL per well) in a 96-well, black-sided, clear-bottomed falcon plate (Fisher Scientific, UK) with the final plate column (8 wells) being treated as a blank (media only). Following a 24 h incubation (5% CO2, 37°C, humidified), HepG2 cells were then treated with 50 μL of pre-warmed media (37°C) containing SGC EPs/EIs at 200 μM to 0.02 μM (final concentration 100 μM, 10 μM, 1 μM, 0.1 μM and 0.01 μM). Three positive (1% Triton X-100) and negative (1% DMSO) control wells per plate were additionally included.
(§2) After addition of compounds, each plate was then incubated for a further 20 h before application of MTT for assessment of overt compound cytotoxicity using the MTT assay. The MTT assay was read using the POLARstar Omega (BMG LabTech, UK) plate reader at an absorbance of 570 nm. CC50s were calculated in GraphPad Prism.
On the technique in general: Formazan colour is commonly taken as a measure of viable cells.

Another data set has as its system H3K36me2. The data set is described as follows: H3K36me2 detection in adult worm histone extracts. The data set is classed as cell-based, Schistosoma mansoni. To be noted: adult schistosome pairs, 72 h, vs DMSO. How it is done: LLY-507 (6.25 μM), BAY-598 (25 μM) or siSmp_000700 treated male and female worms (alongside DMSO or siLuc controls; 21 individuals per condition) were homogenized with a TissueLyser (Qiagen) and total histones extracted using the EpiQuik^TM Total Histone Extraction Kit (Epigentek). Levels of H3K36me2 in adult histone extracts were measured using the EpiQuik^TM Global Di-Methyl Histone H3-K36 Quantification Kit (Fluorimetric, Epigentek). Technical duplicates of three biological replicates of each treatment were analysed according to the manufacturer’s instructions. Fluorescent readings (530EX/590EM nm) were obtained using a POLARstar Omega (BMG Labtech, UK) microtiter plate reader. Fluorescent values of the samples were corrected by subtracting the fluorescent readings of the blank (buffer only, provided in the kit). The mean of the adjusted control values (DMSO for LLY-507/BAY-598 treated worms and siLuc for siSmp_000700 treated worms) was set at 100% H3K36me2 and the standard deviation (SD) was calculated from the normalised values.

Data set [3] relates to in vitro laid eggs (IVLEs) of adult worm pairs. The experiment in a line: Vitellocyte and egg volume quantification of in vitro laid eggs (LSCM). The conditions noted are these: 6.25 μM, 72 h, n = 10 eggs. The data set is classed as cell-based, Schistosoma mansoni. The text has this: Fluorescent microscopic images (10 eggs per treatment) were captured on a Leica TCS SP8 super resolution laser confocal microscope fitted with a 63 X (water immersion) objective using the Leica Application Suite X. Green (egg autofluorescence) fluorescence was visualised with an argon or diode-pumped, solid state (DPSS) laser at 488 nm. DAPI was visualised using a 405 nm blue diode laser. The number of vitellocytes (DAPI^+ cells) and overall volume (mapped by the green autofluorescence) for individual eggs were calculated using IMARIS 7.3 software (Bitplane).

For data set [4] the following is noted: not told; cited from earlier work.
The test system of the next data set is HepG2 cells. The experiment in a line: HepG2 cell cytotoxicity, MTT assay. The class given is cell-based, Human. The conditions noted are these: 20 h, read-out: CC50 (HepG2) (95% Confidence Intervals). On the procedure:
as §1, §2

Where [5] appears, read: 72 h, two-fold titration 10 μM–0.625 μM, single replicate, approximate, read-out: SCHISTOSOMULA EC50 Phenotype.
The mark [6] stands for this setting: 72 h, motility, adult females, read-out: ADULT EC50 (95% Confidence Intervals) Females.
Where [7] appears, read: 72 h, motility, adult males, read-out: ADULT EC50 (95% Confidence Intervals) Males.

One may read the EC50 as the concentration that produces a half-maximal response. As usually defined, the CC50 is the concentration that lowers cell viability or growth by half.

As for `COc1cc2c(cc1OCCCN1CCCC1)N=C(N)C21CCC1` [A-366, 5'-Methoxy-6'-[3-(1-pyrrolidinyl)propoxy]spiro[cyclobutane-1,3'-indol]-2'-amine], the “miracidia to sporocyst transformation” value in the data set with miracidia was “completely block”.
`CCN(C(=O)CO)[C@H]1CN(C(=NC#N)Nc2cccc(OC(F)F)c2)N=C1c1ccc(Cl)c(Cl)c1` [BAY-598, (S)-N-[1-{N′-Cyano-N-[3-(difluoromethoxy)phenyl]carbamimidoyl}-3-(3,4-dichlorophenyl)-4,5-dihydro-1H-pyrazol-4-yl]-N-ethyl-2-hydroxyacetamide]: in the data set on S. mansoni schistosomula (10 μM, 72 h), the “hit / activity against schistosomula, single-point screen” value (“hit / activity against schistosomula” for short) is on record as “are hits against schistosomula; also recorded: both active against schistosomula”. The “SELECTIVITY INDEX Schistosomula Phenotype” value in the data set with S. mansoni schistosomula is 10.40. In addition, the results for the concentration giving a half-maximal response (EC50) (with S. mansoni schistosomula (setting [5]); in data set [1] (setting [6]); in data set [1] (setting [7])) were 4.81 µM, 16.5 µM and 22.4 µM, respectively. Besides, in data set [1], the “SELECTIVITY INDEX Adult Females” value worked out at 3.02. Besides, in data set [1], the “SELECTIVITY INDEX Adult Males” value came out at 2.24. Moreover, the half-maximal cytotoxic concentration (CC50) at 20 h in data set [2] was > 50 µM. Besides, the “reduction in H3K36me2” value in the data set on H3K36me2 (25 μM) worked out at 23%.
For the compound `CCCc1cc(C)[nH]c(=O)c1CNC(=O)c1cc(-c2ccnc(N3CCN(C)CC3)c2)cc2c1cnn2C(C)C` [GSK343, N-[(1,2-Dihydro-6-methyl-2-oxo-4-propyl-3-pyridinyl)methyl]-1-(1-methylethyl)-6-[2-(4-methyl-1-piperazinyl)-4-pyridinyl]-1H-indazole-4-carboxamide, N-[(6-Methyl-2-oxo-4-propyl-1,2-dihydropyridin-3-yl)methyl]-6-[2-(4-methylpiperazin-1-yl)pyridin-4-yl]-1-(propan-2-yl)-1H-indazole-4-carboxamide], in the data set with S. mansoni schistosomula (10 μM, 72 h), the “hit / activity against schistosomula” value is given as “identified as a hit”. Further, the “SELECTIVITY INDEX Schistosomula Phenotype” value with S. mansoni schistosomula was 9.24. Further, the EC50 was 3.17 µM in the data set with S. mansoni schistosomula (setting [5]), 25.3 µM in data set [1] (setting [6]) and 25 µM in data set [1] (setting [7]). Moreover, the “SELECTIVITY INDEX Adult Females” value in data set [1] stood at 1.16. Further, the “SELECTIVITY INDEX Adult Males” value in data set [1] was 1.17. The CC50 at 20 h in data set [2] turned out to be 29.2 µM. The “miracidia to sporocyst transformation” value in the data set with miracidia is recorded as “completely block”.
For the compound `O=C(O)CCNc1cc(N2CCc3ccccc3CC2)nc(-c2ccccn2)n1` [GSK-J1], the “hit / activity against schistosomula” value with S. mansoni schistosomula (10 μM, 72 h) is “None of these chemotype controls demonstrated anti-schistosomula activity”. Besides, the “adult worm motility and IVLE production” value in data set [1] (3.13 μM and 6.25 μM, 72 h, vs DMSO) is “did not substantially alter these phenotypes”. In addition, in data set [3], the “number of vitellocytes per egg (packaging into IVLEs)” value is “did not” and the overall egg volume result was “no difference”. The cell permeability result in data set [4] was “cell impermeable”.
Turning to `Cc1cn(CCN2CCN(c3ccccc3-c3cc(C#N)cc(C(=O)NCCCN4CCCC4)c3)CC2)c2ccccc12` [LLY-507, 5-(2-(4-(2-(9-methyl-7-aza-bicyclo[4.3.0]nona-1(6),2,4,8-tetraen-7-yl)-ethyl)-piperazin-1-yl)-phenyl)-3-((3-(pyrrolidin-1-yl)-propylamino)-formyl)-benzonitrile], in the data set on S. mansoni schistosomula (10 μM, 72 h), the “schistosomula phenotype by microscopic assessment” value is reported as “phenotypes comparable to auranofin” and the “hit / activity against schistosomula” value is listed as “are hits against schistosomula; also recorded: both active against schistosomula”. Also, in the data set with S. mansoni schistosomula, the “SELECTIVITY INDEX Schistosomula Motility” value was 8.47 and the “SELECTIVITY INDEX Schistosomula Phenotype” value stood at 8.24. Besides, the EC50 in the data set with S. mansoni schistosomula (72 h, two-fold titration 10 μM–0.625 μM, single replicate, approximate, read-out: SCHISTOSOMULA EC50 Motility) turned out to be 2.81 µM. Moreover, the EC50 in the data set on S. mansoni schistosomula (setting [5]) worked out at 2.88 µM. In addition, in data set [1], the “SELECTIVITY INDEX Adult Females” value is 3.13 and the “SELECTIVITY INDEX Adult Males” value is listed as 2.55. Further, the EC50 in data set [1] (setting [6]) turned out to be 7.59 µM. The EC50 in data set [1] (setting [7]) amounted to 9.32 µM. Besides, the cytotoxic concentration (CC50) at 20 h in data set [2] stood at 23.8 µM. Moreover, the “reduction in H3K36me2” value in the data set with H3K36me2 (6.25 μM) was 25%.
As for `COc1ccccc1C(=O)Nc1cc2c(cc1N1CCCC1)n(C)c(=O)n2C` [PFI-4, N-(1,3-dimethyl-2-oxo-6-(pyrrolidin-1-yl)-2,3-dihydro-1H-benzo[d]imidazol-5-yl)-2-methoxybenzamide], the “SELECTIVITY INDEX Schistosomula Motility” value with S. mansoni schistosomula is recorded as 19.52. In addition, the “SELECTIVITY INDEX Schistosomula Phenotype” value with S. mansoni schistosomula is 19.18. Also, the EC50 in the data set with S. mansoni schistosomula (72 h, read-out: SCHISTOSOMULA EC50 Motility) was 5.12 µM; in the data set with S. mansoni schistosomula (72 h, read-out: SCHISTOSOMULA EC50 Phenotype), 5.22 µM; in data set [1] (72 h, read-out: ADULT EC50 (95% Confidence Intervals) Females), 31.2 µM; in data set [1] (72 h, read-out: ADULT EC50 (95% Confidence Intervals) Males), 30.1 µM. Further, the “SELECTIVITY INDEX Adult Females” value in data set [1] amounted to 3.20. Moreover, the “SELECTIVITY INDEX Adult Males” value in data set [1] came to 3.33. The CC50 at 20 h in data set [2] is > 50 µM. Besides, the CC50 in the data set on HepG2 cells is > 100 µM.
